Reference: patent publication US10646572B2, “Pharmaceutical compositions with enhanced stability” (Foresee Pharmaceuticals Co., Ltd., priority 2006, dated 2020)
Structures can show the parent of a compound that is named as a salt. Where two headings read alike, the source gives them in different places. Each block holds one compound with its values, some of them ahead of it.

Key:
[1] = cited from earlier work
[2] = type: physicochemical
From the text: (§1) The injectable compositions were filled into 1.2 mlL polypropylene syringes with luer-lock tips. […] The injectable composition was sampled at pre-defined time points.

in vivo = test: in vivo; parameters: species or system rats; conditions: rat, sc
Description: Each formulation was then injected into the rats subcutaneously at a volume of about 100 μL with 6 animals per group. The serum samples were collected from each animal at 3 hour, 1, 3, 7, 14, 28, 42, 56, and 70 days post injection. The serum samples were analyzed for leuprolide concentration by ELISA using the kits available from Peninsula Laboratories Inc. The leuprolide remaining in the implants at various times was analyzed by HPLC.

[3] = Molecular weight of PLGA in PLGA/DMSO injectable compositions (GPC); type: physicochemical; conditions: DMSO, 4° C., after 16 months
From the text: as §1

[4] = NMP
Description: Poly(DL-lactide-co-glycolide) (PLGA) of an 85/15 ratio of lactide to glycolide (DLPLG85/15, IV: 0.28) with a lauryl ester end group was dissolved in N- methyl-2-pyrrolidone (NMP) to give a 50% solution by weight. The leuprolide salts were mixed with the PLGA solution in NMP to give a uniform injectable composition at ratios shown in the Table 1. The injectable compositions were filled into 1.2 mL polypropylene syringes with luer-lock tips. Then the pre-filled syringes were sealed using luer-lock caps. The capped syringes were packaged in a container and sealed in a plastic bag under vacuum and then stored at 4° C. and room temperature (˜22° C.) for up to 18 months. The injectable composition was sampled at 24 h, 1, 2, 3, 6, 12, and 18 month time points. […] Molecular weight of the polymer was determined by gel permeation chromatography (GPC) using polystyrene standards with known molecular weights.

[5] = In vitro release of leuprolide from injectable polymeric formulations (Example 10); type: physicochemical; conditions: 6% by weight in PLGA/NMP, PBS pH 7.4, 37° C., FIG. 3
Description: Three polymer vehicle solutions were prepared as following: PLG 85/15 (0.28 IV) with a lauryl ester end group was dissolved in NMP at 50% and 55% by weight, and RG503 (0.42 IV) with a carboxylic acid end group was dissolved in NMP at 50% by weight. Then suitable amount of leuprolide hydrochloride (LAHCl) and leuprolide mesylate (LAMS) were mixed with the polymer solutions at 6% by weight each. The formulations were thoroughly mixed to obtain uniform formulations.
(§2) An aliquot of the formulation suspension (about 100 mg) was injected into in 3 mL phosphate buffer saline solution at pH 7.4 with 0.1% sodium azide at 37° C. The receiving fluid was replaced at selected time points with fresh buffer solution, and the removed buffer solution diluted 2-fold with phosphate buffer at pH 7.4 was analyzed for drug concentration by HPLC. The amount released at each time point was calculated.

[6] = Effect of Vitamin E TPGS on in vitro release of leuprolide (Example 11); type: physicochemical; conditions: LAHCl 15% in PLA 100DLPL/NMP, PBS pH 7.4, 37° C., FIG. 4
Description: The polymer vehicle solutions with and without excipients were prepared as following: PLA 100DLPL (0.26 IV, Lakeshore, Ala.) with a lauryl ester end group and Vitamin E TPGS were dissolved in NMP at suitable amount according to the Table 7. Then suitable amount of leuprolide hydrochloride (LAHCl) was mixed with the polymer solutions at 15% by weight. The formulations were thoroughly mixed to obtain uniform formulations.
as §2, with “diluted 10-fold” for “diluted 2-fold”, “with PBS” for “with phosphate buffer”

Compound: C[C@@H](O)[C@@H]1NC(=O)[C@H](CCCCN)NC(=O)[C@@H](Cc2c[nH]c3ccccc23)NC(=O)[C@H](Cc2ccccc2)NC(=O)[C@@H](NC(=O)[C@H](N)Cc2ccccc2)CSSC[C@@H](C(=O)N[C@H](CO)[C@@H](C)O)NC1=O [octreotide acetate]
octreotide acylated ([1]; combined with polylactide-co-glicolide solution in NMP, within 5 hours): more than 40%
molecular weight of the polymer ([1]; polylactide-co-glicolide solution in NMP, within the same time period (5 hours)): decreased significantly

leuprolide degraded [2]: less than 5%
Cmax (serum leuprolide) (in vivo): 370.6 ng/mL
time at which Cmax was reached (in vivo): 3 h
Compound: CCNC(=O)[C@@H]1CCCN1C(=O)[C@H](CCCNC(=N)N)NC(=O)[C@H](CC(C)C)NC(=O)[C@@H](CC(C)C)NC(=O)[C@H](Cc1ccc(O)cc1)NC(=O)[C@H](CO)NC(=O)[C@H](Cc1c[nH]c2ccccc12)NC(=O)[C@H](Cc1c[nH]cn1)NC(=O)[C@@H]1CCC(=O)N1 [leuprolide mesylate, Leuprolide Mesylate]

leuprolide degraded [2]: Up to 20%
decrease of molecular weight of PLGA comparing to blank control [3]: about 40%
decrease of molecular weight of PLGA comparing to blank control ([4]; 4° C., after 6 months): more than 10%
Compound: CCNC(=O)[C@@H]1CCCN1C(=O)[C@H](CCCNC(=N)N)NC(=O)[C@H](CC(C)C)NC(=O)[C@@H](CC(C)C)NC(=O)[C@H](Cc1ccc(O)cc1)NC(=O)[C@H](CO)NC(=O)[C@H](Cc1c[nH]c2ccccc12)NC(=O)[C@H](Cc1c[nH]cn1)NC(=O)[C@@H]1CCC(=O)N1 [leuprolide acetate, Leuprolide acetate, reference compound]

leuprolide degraded [2]: less than 5%
molecular weight of PLGA versus control [3]: comparable to that of the control
leuprolide release, LAHCl versus LAMS [5]: no significant difference
time at which Cmax was reached (in vivo): 3 h
Cmax (in vivo; Cmax (serum leuprolide)): 662 ng/mL
molecular weight of PLGA versus blank control ([4]; both 4° C. and RT, after 12 months): the same as that of the blank control
Compound: CCNC(=O)[C@@H]1CCCN1C(=O)[C@H](CCCNC(=N)N)NC(=O)[C@H](CC(C)C)NC(=O)[C@@H](CC(C)C)NC(=O)[C@H](Cc1ccc(O)cc1)NC(=O)[C@H](CO)NC(=O)[C@H](Cc1c[nH]c2ccccc12)NC(=O)[C@H](Cc1c[nH]cn1)NC(=O)[C@@H]1CCC(=O)N1 [leuprolide hydrochloride, Leuprolide Hydrochloride]

effect on initial burst [6]: did not affect the initial burst
Compound: Vitamin E TPGS
effect on release rate of leuprolide at later stages [6]: seemed to reduce the release rate of leuprolide at later stages
